“Also recorded” adds a separate entry of the source. Where two headings read alike, the source gives them in different places.
Assays:
CYP2C8 = target: T1, CYP2C8 (Homo sapiens, UniProt P10632); test: CYP inhibition/activation in pooled human liver microsomes; type: in vitro ADME
T1 sequence (P10632 1-490): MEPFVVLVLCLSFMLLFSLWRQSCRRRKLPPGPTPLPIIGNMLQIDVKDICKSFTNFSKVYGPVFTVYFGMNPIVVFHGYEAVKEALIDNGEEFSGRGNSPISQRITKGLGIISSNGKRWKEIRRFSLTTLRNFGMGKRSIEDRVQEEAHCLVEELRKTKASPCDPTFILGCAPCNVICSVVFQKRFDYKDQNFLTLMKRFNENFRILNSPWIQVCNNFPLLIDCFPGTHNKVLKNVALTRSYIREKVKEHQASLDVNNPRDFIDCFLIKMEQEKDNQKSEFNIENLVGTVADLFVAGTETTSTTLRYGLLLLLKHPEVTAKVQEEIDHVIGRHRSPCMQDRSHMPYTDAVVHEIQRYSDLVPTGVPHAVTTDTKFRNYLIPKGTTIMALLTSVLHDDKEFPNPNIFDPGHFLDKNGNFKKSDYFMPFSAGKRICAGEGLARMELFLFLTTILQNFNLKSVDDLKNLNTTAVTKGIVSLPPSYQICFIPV

UGT 1A4 = target: T2, UGT 1A4 (Homo sapiens, UniProt P22310); test: UGT substrate assay
T2 sequence (P22310 29-534): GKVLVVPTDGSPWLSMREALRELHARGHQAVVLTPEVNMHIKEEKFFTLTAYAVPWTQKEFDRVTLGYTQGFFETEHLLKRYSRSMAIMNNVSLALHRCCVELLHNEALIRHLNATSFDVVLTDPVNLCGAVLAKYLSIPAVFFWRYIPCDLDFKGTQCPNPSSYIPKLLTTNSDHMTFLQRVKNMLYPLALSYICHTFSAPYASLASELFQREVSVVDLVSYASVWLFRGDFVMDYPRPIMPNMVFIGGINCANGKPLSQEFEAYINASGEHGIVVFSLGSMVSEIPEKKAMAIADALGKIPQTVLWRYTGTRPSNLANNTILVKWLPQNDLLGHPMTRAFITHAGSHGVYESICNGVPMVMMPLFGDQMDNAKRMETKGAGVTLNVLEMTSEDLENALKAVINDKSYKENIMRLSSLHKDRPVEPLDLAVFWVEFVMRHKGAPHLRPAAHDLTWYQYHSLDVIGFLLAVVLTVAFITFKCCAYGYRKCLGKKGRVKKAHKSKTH

[1] = Stability in pooled human liver microsomes; type: in vitro ADME
HIV-1 = test: microbe, parasite or virus in culture; settings: Human immunodeficiency virus 1, MAGI
UGT 1A1 [2] = target: T3, UGT 1A1 (Homo sapiens, UniProt P22309); test: UGT substrate assay
T3 sequence (P22309 26-533): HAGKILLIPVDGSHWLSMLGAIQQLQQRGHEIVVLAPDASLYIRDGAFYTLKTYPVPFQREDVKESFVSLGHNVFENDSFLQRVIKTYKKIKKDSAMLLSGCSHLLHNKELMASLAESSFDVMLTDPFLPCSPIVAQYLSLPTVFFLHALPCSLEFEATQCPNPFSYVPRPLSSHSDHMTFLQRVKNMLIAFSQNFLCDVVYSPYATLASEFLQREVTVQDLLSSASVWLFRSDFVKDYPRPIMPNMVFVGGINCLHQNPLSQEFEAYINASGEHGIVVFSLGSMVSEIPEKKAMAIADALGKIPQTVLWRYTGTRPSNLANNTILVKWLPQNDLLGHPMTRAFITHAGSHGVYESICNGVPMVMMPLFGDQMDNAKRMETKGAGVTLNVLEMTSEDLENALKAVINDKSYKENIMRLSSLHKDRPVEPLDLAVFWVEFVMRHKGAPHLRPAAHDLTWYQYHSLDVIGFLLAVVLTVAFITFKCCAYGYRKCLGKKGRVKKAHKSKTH

CYP3A4 = CYP3A4 (Homo sapiens, UniProt P08684); test: CYP inhibition/activation in pooled human liver microsomes; type: in vitro ADME
UGT 1A9 = target: T4, UGT 1A9 (Homo sapiens, UniProt O60656); test: UGT substrate assay
T4 sequence (O60656 26-530): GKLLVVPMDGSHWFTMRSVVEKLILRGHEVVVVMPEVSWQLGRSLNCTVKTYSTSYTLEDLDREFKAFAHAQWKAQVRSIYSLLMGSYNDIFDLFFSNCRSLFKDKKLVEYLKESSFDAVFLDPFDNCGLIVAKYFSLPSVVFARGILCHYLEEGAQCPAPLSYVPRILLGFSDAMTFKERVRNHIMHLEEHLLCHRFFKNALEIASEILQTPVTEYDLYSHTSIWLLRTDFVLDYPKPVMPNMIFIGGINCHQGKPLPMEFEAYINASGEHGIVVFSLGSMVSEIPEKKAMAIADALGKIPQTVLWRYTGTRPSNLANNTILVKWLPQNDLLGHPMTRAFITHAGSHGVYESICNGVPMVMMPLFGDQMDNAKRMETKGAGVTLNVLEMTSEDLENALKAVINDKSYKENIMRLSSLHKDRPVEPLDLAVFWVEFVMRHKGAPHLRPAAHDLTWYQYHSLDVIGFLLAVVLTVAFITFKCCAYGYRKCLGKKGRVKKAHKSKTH

CYP2D6 = CYP2D6 (Homo sapiens, UniProt P10635); test: CYP inhibition/activation in pooled human liver microsomes; type: in vitro ADME
UGT 1A6 = target: T5, UGT 1A6 (Homo sapiens, UniProt P19224); test: UGT substrate assay
T5 sequence (P19224 27-532): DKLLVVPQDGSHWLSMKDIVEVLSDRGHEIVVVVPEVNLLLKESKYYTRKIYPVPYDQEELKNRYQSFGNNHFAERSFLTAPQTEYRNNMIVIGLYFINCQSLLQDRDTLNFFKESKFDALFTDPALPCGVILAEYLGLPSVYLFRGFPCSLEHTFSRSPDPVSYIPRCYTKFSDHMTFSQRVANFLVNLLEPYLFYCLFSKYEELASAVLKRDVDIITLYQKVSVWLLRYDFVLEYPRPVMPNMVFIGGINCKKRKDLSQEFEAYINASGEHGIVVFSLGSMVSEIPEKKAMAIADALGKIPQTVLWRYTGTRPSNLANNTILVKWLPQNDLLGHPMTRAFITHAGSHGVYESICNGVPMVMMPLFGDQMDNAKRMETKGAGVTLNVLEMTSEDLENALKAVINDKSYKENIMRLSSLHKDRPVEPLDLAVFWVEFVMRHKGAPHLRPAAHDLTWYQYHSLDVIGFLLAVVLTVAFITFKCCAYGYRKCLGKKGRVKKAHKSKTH

UGT 2B7 = target: T6, UGT 2B7 (Homo sapiens, UniProt P16662); test: UGT substrate assay
T6 sequence (P16662 24-529): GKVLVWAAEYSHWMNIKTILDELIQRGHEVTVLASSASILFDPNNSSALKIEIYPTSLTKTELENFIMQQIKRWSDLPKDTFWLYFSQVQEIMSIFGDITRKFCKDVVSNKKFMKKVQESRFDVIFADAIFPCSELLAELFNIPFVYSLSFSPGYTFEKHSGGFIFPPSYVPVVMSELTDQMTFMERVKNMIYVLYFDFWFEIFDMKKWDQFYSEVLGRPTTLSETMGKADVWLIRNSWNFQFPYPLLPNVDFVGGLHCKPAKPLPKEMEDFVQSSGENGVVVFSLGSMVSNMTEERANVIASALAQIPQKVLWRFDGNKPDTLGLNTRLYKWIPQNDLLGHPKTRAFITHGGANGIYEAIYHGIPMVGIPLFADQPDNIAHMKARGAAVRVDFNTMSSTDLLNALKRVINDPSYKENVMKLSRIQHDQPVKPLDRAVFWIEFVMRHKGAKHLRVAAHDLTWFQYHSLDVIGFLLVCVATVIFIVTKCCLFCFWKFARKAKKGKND

HIV-1 integrase = HIV-1 integrase (Human immunodeficiency virus type 1 group M subtype B, UniProt P04585); test: Inhibition of the strand transfer; type: biochemical
UGT 1A1 [3] = target: T3, UGT 1A1; settings: cited from earlier work

Chain of CYP3A4 (P08684 whole entry): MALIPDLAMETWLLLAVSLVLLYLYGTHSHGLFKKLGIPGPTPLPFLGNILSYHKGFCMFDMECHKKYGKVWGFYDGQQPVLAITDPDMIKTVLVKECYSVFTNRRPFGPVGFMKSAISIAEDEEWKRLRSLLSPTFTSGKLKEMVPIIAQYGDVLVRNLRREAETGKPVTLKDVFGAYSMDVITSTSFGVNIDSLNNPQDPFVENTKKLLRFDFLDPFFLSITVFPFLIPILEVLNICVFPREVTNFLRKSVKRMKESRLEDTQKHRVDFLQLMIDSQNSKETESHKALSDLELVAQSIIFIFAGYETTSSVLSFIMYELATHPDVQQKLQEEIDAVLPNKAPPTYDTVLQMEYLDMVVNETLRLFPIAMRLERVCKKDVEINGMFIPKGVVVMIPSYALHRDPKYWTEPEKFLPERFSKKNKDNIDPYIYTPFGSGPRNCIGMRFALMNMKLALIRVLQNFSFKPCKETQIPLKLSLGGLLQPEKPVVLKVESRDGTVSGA
Chain of CYP2D6 (P10635 whole entry): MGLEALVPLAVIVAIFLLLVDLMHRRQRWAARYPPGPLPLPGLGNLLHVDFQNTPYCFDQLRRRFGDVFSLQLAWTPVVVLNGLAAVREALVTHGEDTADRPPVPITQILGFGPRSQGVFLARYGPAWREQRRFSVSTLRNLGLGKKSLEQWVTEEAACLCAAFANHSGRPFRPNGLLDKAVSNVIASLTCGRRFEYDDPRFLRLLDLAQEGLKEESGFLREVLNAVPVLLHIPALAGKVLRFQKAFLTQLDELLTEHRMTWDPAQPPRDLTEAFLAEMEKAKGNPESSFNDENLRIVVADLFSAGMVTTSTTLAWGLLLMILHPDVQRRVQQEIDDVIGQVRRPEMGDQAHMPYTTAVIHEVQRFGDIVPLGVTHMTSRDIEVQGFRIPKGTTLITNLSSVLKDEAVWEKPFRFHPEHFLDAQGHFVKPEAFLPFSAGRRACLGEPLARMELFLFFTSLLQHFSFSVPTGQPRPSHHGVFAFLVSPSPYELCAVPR

O=C(O)/C(O)=C/C(=O)c1cc(Cc2ccc(F)cc2F)cn(Cc2ccccc2F)c1=O [Compound 2, 4-(5-(2,4-difluorobenzyl)-1-(2-fluoro-benzyl)-2-oxo-1,2-dihydro-pyridin-3-yl)-2-hydroxy-4-oxobut-2-enoic acid]
activation of CYP2C8 (CYP2C8): did not exhibit any activation
substrate activity towards UGT 1A4 (UGT 1A4): not a substrate
stability in pooled human liver microsomes [1]: good stability; also recorded: relatively stable
EC50 (HIV-1; read-out: anti-HIV-1 EC50): ≤ 0.5 µM
substrate activity towards UGT 1A1 (UGT 1A1 [2]): not a substrate
activation of CYP3A4 (CYP3A4): did not exhibit any activation
inhibition of CYP3A4 (CYP3A4): not an inhibitor
substrate activity towards UGT 1A9 (UGT 1A9): not a substrate
activation of CYP2D6 (CYP2D6): did not exhibit any activation
inhibition of CYP2D6 (CYP2D6): not an inhibitor
substrate activity towards UGT 1A6 (UGT 1A6): not a substrate
substrate activity towards UGT 2B7 (UGT 2B7): not a substrate

CC(C)OC(=O)/C(O)=C/C(=O)c1cc(Cc2ccc(F)cc2F)cn(Cc2ccccc2F)c1=O [Compound 10]
conversion to compound 2 by hydrolysis in human liver microsomes ([1]; in 15 minutes): 100%
IC50 (HIV-1 integrase): > 0.475 µM

C[C@@H]1CCO[C@H]2Cn3cc(C(=O)NCc4ccc(F)cc4F)c(=O)c(O)c3C(=O)N12 [S/GSK 1349572]
substrate activity towards UGT 1A1 (UGT 1A1 [3]; primary route of metabolism and clearance is glucuronidation): substrate for UGT 1A1

Cc1nnc(C(=O)NC(C)(C)c2nc(C(=O)NCc3ccc(F)cc3)c(O)c(=O)n2C)o1 [raltegravir, reference compound]
major mechanism of clearance in humans (UGT 1A1 [3]; humans): UGT 1A1-mediated glucuronidation
EC50 (HIV-1; read-out: anti-HIV-1 EC50): < 0.006 µM

O=C(O)C(=O)C=C(O)c1cc(Cc2ccc(F)cc2F)cn(Cc2ccc(F)cc2F)c1=O [Entry 11, 4-(1,5-bis(2,4-difluorobenzyl)-2-oxo-1,2-dihydropyridin-3-yl)-4-hydroxy-2-oxobut-3-enoic acid]
EC50 (HIV-1): 0.3 µM
EC50 (HIV-1; read-out: anti-HIV-1 EC50): ≤ 0.5 µM
IC50 (HIV-1 integrase): 0.0055 ± 0.0015 µM

Source: article PMC3274775 (ACS medicinal chemistry letters, 2011)
